The record followed here is patent publication US20050009812A1, “Remedies for stress diseases comprising mitochondrial benzodiazepine receptor antagonists” (priority 2001, published 2005).

In test [1] the target is T1, MBR (Rattus norvegicus, UniProt P16257). Nature of the test: Receptor binding: [3H]PK11195 binding to rat brain membrane preparation. Conditions: competition with [3H]PK11195 1 nmol/L, Cheng & Prusoff. More on the design: The brains without cerebellum were homogenized in ice-cold 50 mmol/L Tris-HCl buffer (pH7.4); from tissue; host or cells: male Wistar rat brain without cerebellum, crude membrane pellet. The procedure:
Experiment 1: Receptor Binding
The affinity of the compound to MBR was determined using rat brain membrane preparation. Male Wistar rats were decapitated. After extirpation of the brain, cerebellum was removed. The brains without cerebellum were homogenized in ice-cold 50 mmol/L Tris-HCl buffer (pH7.4). The homogenate was centrifuged at 12,000 g for 20 min (4° C.), then supernatant was discarded. The residual pellet was washed in the same buffer. The pellet resuspended in 50 mmol/L Tris-HCl buffer (pH7.4) and adjusted to about 1 mg/mL was used as the rat brain membrane preparation for binding assay.
To determine the amount of non-specific binding, 20 μmol/L of PK11195 was added in place of DMSO and incubate for 1 h. The reaction was terminated by rapid filtration on GF/B filter soaked with 0.3% polyethyleneimine using cell harvester, then the filter was washed twice with 50 mmol/L Tris-HCl buffer (pH7.4). After dried in the oven, the radioactivity on the filer was measured by liquid scintillation counter. The data were analyzed using analysis soft KELL (Ver.6, BIOSOFT).
To determine the amount of non-specific binding, 20 μmol/L of PK11195 was added in place of DMSO. And to determine the affinity of the invention, 10 pmol/L to 1 μmol/L of the compound dissolved in DMSO was added in place of DMSO. The reaction was terminated as above described, then radioactivity on the filer was measured by liquid scintillation counter. […] The inhibitory constant (Ki value) was derived according to the equation of Cheng & Prusoff (Biochem. Pharmacol., 22, 3099-3108, 1973).

For test [2], the system named is rat adrenocortical mitochondria. Nature of the test: Determination of pregnenolone in rat adrenocortical mitochondria. The class given is biochemical. Conditions: for Amount of pregnenolone production (%): 10 μmol/L, DMSO assumed 100, n=5; for MBR agonist or antagonist as judged by effect on pregnenolone production: compared with DMSO treated group; for pregnenolone content relative to DMSO treated group: final concentration of the compound 1 μmol/L.

Test [3] deals with stress-loaded male Wistar rats. Nature of the test: Anti-stress effect: number of fecal pellets in psychological (water aversive) stress model. Conditions: for number of fecal pellets: p.o., male Wistar rats, psychological (water aversive) stress, counted 1 h after start of stress loading, mean ± spread; for number of fecal pellets / effect on stress-induced increase in the number of fecal pellets: n=10/group; for effect on number of fecal pellets vs vehicle (significance, all doses): all tested p.o. doses vs vehicle, stress-loaded male Wistar rats; for effect on stress-induced increase in the number of fecal pellets: oral administration 30 min before stress loading, counted after 1 h. In kind it is in vivo, rat. The procedure: Psychological stress was loaded to male Wistar rats (Brain Res., 641, 21-28 (1994)). Platform was located in the center of the container and water was collected to 10 cm in height. Thirty min after oral administration of vehicle or the compound, stress loading was started. One hour after, number of fecal pellets were counted (n=10/group). The rats without administration and stress-loading rarely defecated in 1 h.

For test [4], the target named is T1, MBR. The test is described as follows: MBR antagonist activity: FGIN1-27-stimulated pregnenolone production in rat adrenocortical mitochondria. Conditions: FGIN1-27 1 nmol/L; MBR antagonist 0.1 pmol/L to 1 μmol/L; FIGS. 1 and 2. The class given is biochemical. From the text:
Horizontal axis represents the concentrations of the compound.

In the case of `Clc1cccc(Cc2nnnn2-c2cccc(Cl)c2Cl)c1Cl` [2(74), 5-(2,3-dichlorobenzyl)-1-(2,3-dichlorophenyl)-1H-1,2,3,4-tetrazole], the Ki (in general, the equilibrium dissociation constant of an inhibitor or competing ligand from its target) at MBR [1] turned out to be 160 pM.
Same read-out and setting: the same measure for `O=C(NCc1ccc(F)cc1C(F)(F)F)c1cccc(Cl)c1Cl` [1(16), N-(4-fluoro-2-trifluoromethylbenzyl)-2,3-dichlorobenzamide]: 190 pM.
Turning to `CCCN(CCC)C(=O)c1c(-c2ccc(Cl)cc2)nc2cc(Cl)cc(Cl)n12` [CB34, 5,7-dichloro-2-(4-chlorophenyl)-3-dipropylaminocarbonylimidazo[1,2-a]pyridine], the “Amount of pregnenolone production (%)” value in test [2] is on record as 131.36 ± 5.38%. For the same compound, the “MBR agonist or antagonist as judged by effect on pregnenolone production” value (“MBR agonist or antagonist as judged” for short) in test [2] was “MBR agonists which increase pregnenolone production”. Besides, the “number of fecal pellets” value in test [3] (3 mg/kg) worked out at 10.2 ± 0.96; in test [3] (10 mg/kg), 7.6 ± 0.93; in test [3] (30 mg/kg), 8.6 ± 1.00. For the same compound, the “effect on number of fecal pellets vs vehicle (significance, all doses)” value (from here on “effect … vs vehicle (significance, all doses)”) in test [3] was “No significant effect in any dose”. Moreover, the “effect on stress-induced increase in the number of fecal pellets” value (“effect on stress-induced increase” below) in test [3] is given as “did not produce significant effects”.
At MBR [1], `O=C(NCc1cc(F)ccc1OCc1ccccc1)c1cccc(Cl)c1Cl` [1(110), N-(2-benzyloxy-5-fluorobenzyl)-2,3-dichlorobenzamide] came in with a Ki of 220 pM.
Regarding `Fc1cccc(Cl)c1Cn1nnnc1-c1ccccc1C(F)(F)F` [2(14), 1-(2-chloro-6-fluorobenzyl)-5-(2-trifluoromethylphenyl)-1H-1,2,3,4-tetrazole], the “pregnenolone content relative to DMSO treated group” value in test [2] amounted to 0.98 times. Also, the “number of fecal pellets” value amounted to 6.1 ± 0.82 in test [3] (0.3 mg/kg), 6.6 ± 0.76 in test [3] (3 mg/kg) and 5.1 ± 0.78 in test [3] (30 mg/kg). Further, the “antagonistic effect on FGIN1-27-stimulated pregnenolone production” value at MBR [4] is “antagonize the steroid production stimulated by MBR agonist”. At MBR [1], this compound registered a Ki of 3300 pM.
With `CCN(Cc1ccccc1)C(=O)Cn1c(=O)n(C)c2cnc(-c3ccccc3)nc21` [AC-5216, N-benzyl-N-ethyl-2-(7-methyl-8-oxo-2-phenyl-7,8-dihydro-9H-purin-9-yl)acetamide], the “Amount of pregnenolone production (%)” value in test [2] was found to be 122.65 ± 7.56%. The “MBR agonist or antagonist as judged” value in test [2] is “MBR agonists which increase pregnenolone production”; in test [2] (listed as N-benzyl-N-ethyl-2-(7-methyl-8-oxo-2-phenyl-7,8-dihydro-9H-purin-9-yl)acetamide), “MBR antagonist”. The “number of fecal pellets” value was 9.6 ± 0.74 in test [3] (0.3 mg/kg), 7.5 ± 0.63 in test [3] (3 mg/kg) and 9.3 ± 0.94 in test [3] (30 mg/kg). Moreover, the “effect … vs vehicle (significance, all doses)” value in test [3] is “No significant effect in any dose”. Also, the entries for the “effect on stress-induced increase” value in test [3] and in test [3] (listed as AC-5261) were “did not show an effect” and “did not produce significant effects”, respectively.
In the case of `CCCCCCN(CCCCCC)C(=O)Cc1c(-c2ccc(F)cc2)[nH]c2ccccc12` [FGIN1-27, 2-[2-(4-fluorophenyl)-1H-indole-3-yl]-N,N-dihexylacetamide], in test [2], the “MBR agonist or antagonist as judged” value is listed as “MBR agonists which increase pregnenolone production” and the “pregnenolone content relative to DMSO treated group” value was 1.37 times.
`CCC(C)N(C)C(=O)c1cc2ccccc2c(-c2ccccc2Cl)n1` (stereo not shown) [PK11195, 1-(2-chlorophenyl)-N-methyl-N-(1-methylpropyl)-3-isoquinolinecarboxamide]: in test [2], the “Amount of pregnenolone production (%)” value is 101.82 ± 1.64%. In test [2], the “MBR agonist or antagonist as judged” value is “MBR antagonists which hardly effect on it”. Besides, the “number of fecal pellets” value came out at 6.4 ± 0.76 in test [3] (0.3 mg/kg), 6.6 ± 0.97 in test [3] (3 mg/kg) and 5.5 ± 0.81 in test [3] (30 mg/kg). Also, the “effect on stress-induced increase” value in test [3] was “produced significant effects”. For the same compound, the “antagonistic effect on FGIN1-27-stimulated pregnenolone production” value on MBR [4] is “antagonize the steroid production stimulated by MBR agonist”.
As to `Clc1ccc(Cl)c(Cc2nnnn2-c2cccc(Cl)c2Cl)c1` [2(71), 5-(2,5-dichlorobenzyl)-1-(2,3-dichlorophenyl)-1H-1,2,3,4-tetrazole], affinity on MBR [1] was put at a Ki of 80 pM.
Same read-out and setting: the same measure for `Clc1cccc(-c2nnnn2Cc2cc(Cl)ccc2OCc2ccccc2)c1` [2(105), 1-(2-benzyloxy-5-chlorobenzyl)-5-(3-chlorophenyl)-1H-1,2,3,4-tetrazole]: 730 pM.
In the case of `CN1C(=O)CN=C(c2ccc(Cl)cc2)c2cc(Cl)ccc21` [Ro5-4864, 7-chloro-5-(4-chlorophenyl)-1-methyl-2-oxo-2,3-dihydro-1H-benzodiazepine], the “Amount of pregnenolone production (%)” value in test [2] stood at 123.59 ± 5.41%. Moreover, the “MBR agonist or antagonist as judged” value in test [2] is recorded as “MBR agonists which increase pregnenolone production”. Moreover, the “number of fecal pellets” value in test [3] (3 mg/kg) is 8.9 ± 1.16; in test [3] (10 mg/kg), 9.2 ± 0.98; in test [3] (30 mg/kg) it was 8.6 ± 0.91. Further, in test [3], the “effect … vs vehicle (significance, all doses)” value was “No significant effect in any dose”. Moreover, the “effect on stress-induced increase” value in test [3] was “did not produce significant effects”.
